Measured values taken from patent publication US12578343B2, “Selective ACKR3 modulators and uses thereof” (Luxembourg Institute of Health (LIH), priority 2019, dated 2026).

Target: KOR (Homo sapiens, UniProt P41145)
Assay: Receptor cell surface level of KOR by HiBiT technology
Format: cell-based
Design: expressed in transfected cells; host or cells: U87 cells, transient, PEI
Conditions: bafilomycin A1 1.5 μM, 180-minute stimulation
Description: 1.14 Monitoring of Opioid Peptide-Induced Changes in Receptor Cell Surface Levels
Determination of receptor surface expression level by NanoLuc complementation assay was performed using the Nano-Glo HiBiT extracellular detection system (Promega) according to manufacturer's protocol. […] Cells were then incubated with HiBiT extracellular reagent, consisting of Nanoluciferase extracellular substrate and LgBiT protein in HiBiT buffer. Light emission from complementation of LgBiT protein with remaining surface receptor-fused HiBiT was determined on a Mithras LB940 plate reader (Berthold Technologies). Signal was normalised to the measurement recorded at t=1 min. Noteworthy the impact of nociceptin and derivatives could not be determined in this assay due to significant LgBiT protein cross-complementation by nociceptin. Where indicated, cells were treated with bafilomycin A1 (1.5 μM in 0.15% DMSO) (Santa Cruz Biotechnology) or 0.15% DMSO for 45 minutes prior ligand stimulation and during ligand stimulation (180 minutes).

Sequence of KOR (P41145 whole entry): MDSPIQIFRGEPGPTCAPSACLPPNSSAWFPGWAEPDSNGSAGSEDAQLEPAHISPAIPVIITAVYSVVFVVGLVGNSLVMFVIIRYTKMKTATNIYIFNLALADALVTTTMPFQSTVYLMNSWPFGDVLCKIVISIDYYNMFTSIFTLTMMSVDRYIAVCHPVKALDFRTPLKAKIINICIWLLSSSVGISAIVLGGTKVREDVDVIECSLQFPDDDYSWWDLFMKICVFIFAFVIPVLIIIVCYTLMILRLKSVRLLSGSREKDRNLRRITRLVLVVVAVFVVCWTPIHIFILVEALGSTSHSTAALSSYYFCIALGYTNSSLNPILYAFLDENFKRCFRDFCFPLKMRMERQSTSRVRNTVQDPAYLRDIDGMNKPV

## CO/C1=C\C(C)=C\[C@@H](C)[C@@H](O)[C@@H](C)C/C(C)=C/C=C/[C@H](OC)[C@@H]([C@@H](C)[C@@H](O)[C@H](C)[C@@]2(O)C[C@@H](O)[C@H](C)[C@@H](C(C)C)O2)OC1=O [bafilomycin A1]
  surface levels of KOR following stimulation with opioid peptides: no effect on surface levels of KOR
